≈ marks a conversion by molar mass, not a printed value.
Assays:
Type in all cases: cell-based
S. pyogenes (C203) = experiment: In vitro antibacterial activity (MIC), S. pyogenes; conditions: Streptococcus pyogenes; strain C203; lowest concentration preventing macroscopically visible growth; read-out: Minimum Inhibitory concentrations S. pyogenes (C203)
Source text: (§1) The in vitro antibacterial activity of the compounds of the present invention may be assessed by following procedures recommended in (1) National Committee for Clinical Laboratory Standards (January 2003), Methods for dilution antimicrobial tests for bacteria that grow aerobically, Approved Standard (6th ed), M7-A6, NCCLS, Wayne, Pa.; (2) National Committee for Clinical Laboratory Standards (March 2001), Methods for antimicrobial susceptibility testing of anaerobic bacteria, Approved Standard (5th ed), M11-A4, NCCLS, Wayne, Pa.; (3) National Committee for Clinical Laboratory Standards (January 2003), MIC testing supplemental tables, M100-S13 (for use with M7-A6), NCCLS, Wayne, Pa.; and (4) Murray P R, Baron E J, Jorgensen J H, et al. Manual of Clinical Microbiology (8th ed) Washington, D.C.: American Society for Microbiology Press, 2003. The antibacterial activity can be presented in the form of MIC value. The MIC value is the lowest concentration of drug which prevented macroscopically visible growth under the conditions of the test.

S. aureus (UC-76) = experiment: In vitro antibacterial activity (MIC), S. aureus; conditions: Staphylococcus aureus, UC76; strain UC-76; lowest concentration preventing macroscopically visible growth; read-out: Minimum Inhibitory concentrations S. aureus (UC-76)
Source text: as §1

S. pneumoniae (SV-1) = experiment: In vitro antibacterial activity (MIC), S. pneumoniae; conditions: Streptococcus pneumoniae; strain SV-1; lowest concentration preventing macroscopically visible growth; read-out: Minimum Inhibitory concentrations S. pneumoniae (SV-1)
Source text: as §1

Compound	MIC (S. pyogenes (C203))	MIC (S. aureus (UC-76))	MIC (S. pneumoniae (SV-1))
NC(=O)[C@H]1CN(c2cc(F)c(N3CCCSCC3)c(F)c2)C(=O)O1 [Example 1, 3-[3,5-difluoro-4-(1,4-thiazepan-4-yl)-phenyl]-2-oxo-oxazolidine-5-carboxylic acid amide]	2 µg/mL (≈ 5.6 µM)	2 µg/mL (≈ 5.6 µM)	4 µg/mL (≈ 11.2 µM)
NC(=O)[C@H]1CN(c2cc(F)c(N3CCCS(=O)(=O)CC3)c(F)c2)C(=O)O1 [Example 3, 3-[4-(1,1-dioxo-1λ^6-[1,4]thiazepan-4-yl)-3,5-difluoro-phenyl]-2-oxo-oxazolidine-5-carboxylic acid amide]	2 µg/mL (≈ 5.14 µM)	2 µg/mL (≈ 5.14 µM)	4 µg/mL (≈ 10.3 µM)
CONC(=O)[C@H]1CN(c2cc(F)c(N3CCCS(=O)(=O)CC3)c(F)c2)C(=O)O1 [Example 5, 3-[4-(1,1-dioxo-1λ^6-[1,4]thiazepan-4-yl)-3,5-difluoro-phenyl]-2-oxo-oxazolidine-5-carboxylic acid methoxy-amide]	4 µg/mL (≈ 9.54 µM)	4 µg/mL (≈ 9.54 µM)	8 µg/mL (≈ 19.1 µM)
NC(=O)[C@H]1CN(c2cc(F)c(N3CCC/S(=N\C(=O)C(F)(F)F)CC3)c(F)c2)C(=O)O1 (stereo partly drawn) [Example 6, 3-{3,5-difluoro-4-[1-(2,2,2-trifluoro-acetylimino)-114-[1,4]thiazepan-4-yl]-phenyl}-2-oxo-oxazolidine-5-carboxylic acid amide]	8 µg/mL (≈ 17.1 µM)	8 µg/mL (≈ 17.1 µM)	8 µg/mL (≈ 17.1 µM)

Second part, the molecule after the results:

MIC (S. pyogenes (C203))	MIC (S. aureus (UC-76))	MIC (S. pneumoniae (SV-1))	Compound
8 µg/mL (≈ 16.6 µM)	8 µg/mL (≈ 16.6 µM)	8 µg/mL (≈ 16.6 µM)	CNC(=O)[C@H]1CN(c2cc(F)c(N3CCC/S(=N\C(=O)C(F)(F)F)CC3)c(F)c2)C(=O)O1 (stereo in doubt) [Example 7, 3-{3,5-difluoro-4-[1-(2,2,2-trifluoro-acetylimino)-1λ^4-[1,4]thiazepan-4-yl]-phenyl}-2-oxo-oxazolidine-5-carboxylic acid methylamide]
2 µg/mL (≈ 5.38 µM)	2 µg/mL (≈ 5.38 µM)	4 µg/mL (≈ 10.8 µM)	CNC(=O)[C@H]1CN(c2cc(F)c(N3CCCSCC3)c(F)c2)C(=O)O1 [Example 2, 3-[3,5-difluoro-4-(1,4-thiazepan-4-yl)-phenyl]-2-oxo-oxazolidine-5-carboxylic acid methylamide]
2 µg/mL (≈ 4.96 µM)	2 µg/mL (≈ 4.96 µM)	4 µg/mL (≈ 9.92 µM)	CNC(=O)[C@H]1CN(c2cc(F)c(N3CCCS(=O)(=O)CC3)c(F)c2)C(=O)O1 [Example 4, 3-[4-(1,1-dioxo-1λ^6-[1,4]thiazepan-4-yl)-3,5-difluoro-phenyl]-2-oxo-oxazolidine-5-carboxylic acid methylamide]
4 µg/mL (≈ 11.3 µM)	8 µg/mL (≈ 22.6 µM)	8 µg/mL (≈ 22.6 µM)	CNC(=O)[C@H]1CN(c2ccc(N3CCCSCC3)c(F)c2)C(=O)O1 [Example 9, 5(R)-3-[3-Fluoro-4-(1,4-thiazepan-4-yl)-phenyl]-2-oxo-oxazolidine-5-carboxylic acid methylamide]
1 µg/mL (≈ 2.71 µM)	2 µg/mL (≈ 5.41 µM)	4 µg/mL (≈ 10.8 µM)	CNC(=O)[C@H]1CN(c2ccc(N3CCC[S+]([O-])CC3)c(F)c2)C(=O)O1 (stereo partly drawn) [Example 11, 5(R)-3-[-fluoro-4-(1-oxo-1λ^4-[1,4]thiazepan-4yl)-phenyl]-2-oxo-oxazolidine-5-carboxylic acid methyl amide]
1 µg/mL (≈ 2.81 µM)	2 µg/mL (≈ 5.63 µM)	4 µg/mL (≈ 11.3 µM)	NC(=O)[C@H]1CN(c2ccc(N3CCC[S+]([O-])CC3)c(F)c2)C(=O)O1 (stereo partly drawn) [Example 12, 5(R)-3-[3-fluoro4-(1-oxo-1-[1,4]thiazepan-4-yl)-phenyl]-2-oxo-oxazolidine-5-carboxylic acid amide]
1 µg/mL (≈ 2.59 µM)	12 µg/mL (≈ 31.1 µM)	2 µg/mL (≈ 5.19 µM)	CNC(=O)[C@H]1CN(c2ccc(N3CCCS(=O)(=O)CC3)c(F)c2)C(=O)O1 [Example 13, 5(R)-3-[4-(1,1-dioxo-1λ^6-[1,4]thiazepan-4-yl)-3-fluoro-phenyl]-2-oxo-oxazolidine-5-carboxylic acid methyl amide]
